For nine molecules, EC50 and IC50 results are on record in US10981932B2, “Macrocyclic indole derivatives” (Bayer Aktiengesellschaft, priority 2016, dated 2021).

Molecules are shown by their SMILES. Several values for one entry are separate records, joined by “and”; a condition that tells them apart may be missing. Identical values can stand only once. Like-named read-outs stand apart in the source and are kept apart here.

In data set [1] the test system is SUDHL5. The data set is described as follows: Induction of caspase-3/7 activity (Caspase-Glo 3/7), SUDHL5. It is filed as cell-based. The settings on record: caspase-3/7 induction, SUDHL5 cells, 3 h treatment, median. On the procedure:
(§1) Induction of Caspase-317 Activity Upon Treatment of Cells with Selected Compounds
(§2) The BH3-domain of MCL-1 sequesters pro-apoptotic proteins, thereby inhibiting apoptosis. In contrast, MCL-1 inhibitors are expected to antagonize this effect leading to an increase in apoptosis, which can be determined by measuring the activity of caspase-3/7.
(§3) The activity of caspase-3/7 was determined in DLBCL (Diffuse large B-cell lymphoma) cell lines (SUDHL5 and SUDHL10) upon treatment with different compounds, using the Caspase-Glo® 3/7 reagent from Promega (G8092).
(§4) Rim wells were excluded. The cells were incubated for 3 h hours in a humidified incubator at 37° C.
(§5) For the evaluation of the results, the background measured with “medium-only” was subtracted from all other values. […] The Bella DRC Master Sheet was used to calculate EC50s, with fixed C0=1 and CI=plateaulmax induction for the reference compound.

Data set [2] concerns SUDHL10. Description: Induction of caspase-3/7 activity (Caspase-Glo 3/7), SUDHL10. It is filed as cell-based. Conditions: caspase-3/7 induction, SUDHL10 cells, 3 h treatment, median. On the procedure: as §1, §2, §3, §4, §5
Data set [3] relates to SUDHL5. Description: Induction of cytotoxicity (CellTiter-Glo, 5 h), SUDHL5. (In general: In ATP-based viability assays light output follows the ATP content of the culture.)
The subject of data set [4] is SUDHL10. The data set is described as follows: Induction of cytotoxicity (CellTiter-Glo, 5 h), SUDHL10.
Another data set has as its target MCL-1 (Homo sapiens, UniProt Q07820). The data set is described as follows: Protein-protein interaction assay MCL-1/Noxa BH3 peptide (MCL-1 assay), TR-FRET. It is filed as binding. Conditions: MBP-MCL-1 / Noxa BH3-derived peptide, median. On the procedure: Protein-Protein Interaction Assay: MCL-1/Noxa BH3 Peptide (MCL-1 Assay) […]
In the assay 11 different concentrations of each compound (0.1 nM, 0.33 nM, 1.1 nM, 3.8 nM, 13 nM, 44 nM, 0.15 μM, 0.51 μM, 1.7 μM, 5.9 μM and 20 μM) were typically measured as duplicates in the same microtiter plate. For that, 100-fold concentrated DMSO solutions were prepared by serial dilutions (1:3.4) of a 2 mM stock solution in a clear, 384-well microtiter plate (Greiner Bio-One, Frickenhausen, Germany). From there, 50 ni were transferred in a dark test plate (Greiner Bio-One, Frickenhausen, Germany). The assay was initiated by addition of 2 μl of a 2.5-fold concentrated MBP-MCL-1 solution (usually for a 1 nM end concentration in 5 μl reaction volume) in aqueous assay buffer [50 mM Tris/HCl pH 7, 100 mM sodium chloride (NaCl), 50 mM potassium fluoride (KF), 0.005% Tween-20, 2 mM DTT, 0.1% bovine gamma globulin (BGG)] to the compounds in the assay plate. This was followed by a 10-minute incubation step at 22° C. for pre-equilibration of the putative complex between MBP-MCL-1 and the compounds. After that.
The mixture was incubated in the dark for one hour at 22° C. and then overnight at 4° C. The formation of MCL-1/Noxa complexes was determined by measuring the resonance energy transfer of the anti-MBP- Eu-cryptate antibody to the streptavidin-XL665 present in the reaction. For that purpose, the fluorescence emission at 620 nm and 665 nm after excitation at 330-350 nm was measured in a TR-FRET measuring instrument, for instance a Rubystar or a Pherastar (both from BMG Lab Technologies, Offenburg, Germany) or a Viewlux (Perkin-Elmer). The ratio of the emission at 665 nm and at 622 nm was used as indicator of the amount of MCL-1/NOXA complexes present.
The resulting data (ratio) were normalized, taking 0% inhibition as the mean value of control measurements (usually 32 data points) where all reagents were included. In this case 50 nl DMSO were used instead of compounds. A 100% inhibition corresponded to the mean value of control measurements (usually 32 data points) where all reagents except MCL-1 were included. IC50 values were determined by regression analysis based on a 4 parameter equation (minimum, maximum, IC50, Hill; Y=Max+(Min−Max)/(1+(X/IC50)^Hill) using the Screener Software (Genedata).
On the technique in general: TR-FRET usually uses a lanthanide donor and a delayed reading to cut background.

In a further data set the test system is A2780. Description: Anti-proliferative effect (CellTiter-Glo, 72 h), A2780. It is filed as cell-based. Conditions: Homo sapiens, A2780, 72 h, A2780 cells, median, read-out: IC50 antiproliferation assay A2780 [M] (median). On the procedure:
Assessment of the Anti-Proliferative Effect of Compounds in Different Cell Lines
The impact of compounds on the proliferation of different cell lines was assessed using the CellTiter-Glo® Luminescent Cell Viability reagent from Promega (G7573). Of note, SUDHL10 and SUDHL5 (DLBCL), NCI-H929 (Multiple Myeloma), A2780 (ovarian carcinoma) as well as MV-4-11(AML) cells are sensitive to MCL-1 inhibition.
In parallel, cells were plated in a reference (day 0) plate for time zero determination.
Rim wells were excluded. The cells were incubated for 72 h hours in a humidified incubator at 37° C. The day 0 plate was measured by adding 30 μl/well of CTG solution (CellTiter-Glo® Luminescent Cell Viability reagent, Promega G7573) to time zero wells in the reference plate followed by a 10 minutes incubation and luminescence reading at 0.1 ms, using the PHERAstar FS microplate reader (BMG Labtech).
After 72 h incubation, the treated plates were measured in the same way as the day 0 plate mentioned above.

[5] abbreviates: Homo sapiens, SU-DHL-5, 5 h, read-out: Cytotox SUDHL5 [M] (median), SUDHL5 cells, cytotoxicity induction, CellTiter-Glo, 5 h incubation, median.
[6] abbreviates: Homo sapiens, SU-DHL10, 5 h, read-out: Cytotox SUDHL10 [M] (median), SUDHL10 cells, cytotoxicity induction, CellTiter-Glo, 5 h incubation, median.
[7] abbreviates: read-out: Cytotox SUDHL10 [M] (median), SUDHL10 cells, cytotoxicity induction, CellTiter-Glo, 5 h incubation, median.

In general, EC50 refers to the concentration that produces a half-maximal response. A lower EC50 goes with greater potency.

Sequence of MCL-1 (Q07820 whole entry): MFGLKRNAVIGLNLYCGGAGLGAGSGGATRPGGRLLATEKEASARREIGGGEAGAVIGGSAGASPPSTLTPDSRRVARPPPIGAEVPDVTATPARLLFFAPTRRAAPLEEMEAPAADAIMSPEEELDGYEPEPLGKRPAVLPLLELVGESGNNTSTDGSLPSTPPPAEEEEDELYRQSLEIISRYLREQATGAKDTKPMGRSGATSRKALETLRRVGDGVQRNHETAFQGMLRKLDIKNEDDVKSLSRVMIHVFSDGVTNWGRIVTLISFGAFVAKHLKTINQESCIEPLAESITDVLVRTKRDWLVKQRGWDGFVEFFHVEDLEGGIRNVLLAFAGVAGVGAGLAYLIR

As to `CC(=O)N1CCN(c2ccc(OCc3nn(C)c4c3-c3cccc5c(CCCOc6cccc7ccccc67)c(C(=O)O)n(c35)CC=CCOC4)cc2)CC1` (racemic) [Example 1-1, (rac)-(E/Z)-3-{[4-(4-acetylpiperazin-1-yl)phenoxy]methyl}-1-methyl-7-[3-(naphthalen-1-yloxy)propyl]-1,10,13,25-tetrahydropyrazolo[4′,3′:9,10][1,6]oxazacycloundecino[8,7,6-hi]indole-8-carboxylic Acid], the EC50 in the data set on SUDHL5 [1] (Homo sapiens, SU-DHL-5, 3 h) came to 14.8 µM; in the data set with SUDHL10 [2] (Homo sapiens, SU-DHL10, 3 h), 22.5 µM. The IC50 in the data set on SUDHL5 [3] (setting [5]) and in the data set on SUDHL10 [4] (setting [6]) was more than 3.3e-05 M each time.

As to `Cn1nc(COc2ccc(N3CCNCC3)cc2)c2c1COCC=CCn1c(C(=O)O)c(CCCOc3cccc4ccccc34)c3cccc-2c31` (racemic) [Example 1-2, (rac)-(E/Z)-1-methyl-7-[3-(naphthalen-1-yloxy)propyl]-3-{[4-(piperazin-1-yl)phenoxy]methyl}-1,10,13,15-tetrahydropyrazolo[4′,3′:9,10][1,6]oxazacycloundecino[8,7,6-hi]indole-8-carboxylic Acid], the results for the IC50 against MCL-1, with SUDHL5 [3] (setting [5]) and in the data set on SUDHL10 [4] (setting [6]) were 0.0706 µM, more than 3.3e-05 M and more than 3.3e-05 M, respectively. For the same molecule, the EC50 was more than 33 µM with SUDHL5 [1] (Homo sapiens, SU-DHL-5, 3 h) and more than 33 µM with SUDHL10 [2] (Homo sapiens, SU-DHL10, 3 h).

Take `CN1CCCn2c(C(=O)O)c(CCCOc3cccc4ccccc34)c3cccc(c32)-c2c(COCc3ccccc3)nn(C)c2C1` (racemic) [Example 1-93, (rac)-11-[(benzyloxy)methyl]-7,9-dimethyl-1-[3-(naphthalen-1-yloxy)propyl]-4,5,6,7,8,9-hexahydropyrazolo[3′,4′:7,8][1,5]diazecino[9,10,1-hi]indole-2-carboxylic Acid]: the figures for the IC50 at MCL-1, with SUDHL5 [3] (setting [5]) and with SUDHL10 [4] (setting [6]) were 0.0749 µM, more than 3.3e-05 M and more than 3.3e-05 M, respectively. Besides, the EC50 is more than 33 µM in the data set on SUDHL5 [1] (Homo sapiens, SU-DHL-5, 3 h) and 31.8 µM in the data set on SUDHL10 [2] (Homo sapiens, SU-DHL10, 3 h).

Take `Cn1nc(COCc2ccccc2)c2c1COCC=CCn1c(C(=O)O)c(CCCOc3cccc4ccccc34)c3cccc-2c31` (racemic) [Example 1-94, (rac)-(E/Z)-3-[(benzyloxy)methyl]-1-methyl-7-[3-(naphthalen-1-yloxy)propyl]-1,10,13,15-tetrahydropyrazolo[4′,3′9,10][,6]oxazacycloundecino[8,7,6-hi]indole-8-carboxylic Acid]: the results for the IC50 at MCL-1, in the data set on SUDHL5 [3] (setting [5]) and in the data set with SUDHL10 [4] (setting [6]) were 0.141 µM, more than 3.3e-05 M and more than 3.3e-05 M, respectively. Also, the EC50 was more than 33 µM in the data set on SUDHL5 [1] (Homo sapiens, SU-DHL-5, 3 h) and more than 33 µM in the data set with SUDHL10 [2] (Homo sapiens, SU-DHL10, 3 h).

In the case of `Cn1nc2c(c1CN1CCOCC1)-c1cccc3c(CCCOc4cccc5ccccc45)c(C(=O)O)n(c13)CCCCOC2` (racemic) [Example 078, (rac)-2-Methyl-3-(morpholin-4-ylmethyl)-7-[3-(naphthalen-1-yloxy)propyl]-2,10,11,12,13,15-hexahydropyrazolo[4′,3′:9,10][1,6]oxazacycloundecino[8,7,6-hi]indole-8-carboxylic Acid], the IC50 at MCL-1 is 0.0131 µM; in the data set with A2780, 1.96e-05 M. In addition, the EC50 was 14.1 µM in the data set on SUDHL5 [1] (Homo sapiens, SU-DHL-5, 3 h) and more than 33 µM in the data set with SUDHL10 [2] (Homo sapiens, SU-DHL10, 3 h).

Take `Cn1nc(COc2ccccc2)c2c1COCCCCn1c(C(=O)O)c(CCCOc3cccc4ccccc34)c3cccc-2c31` (single isomer, unassigned) [Example 1-79, 1-methyl-7-[3-(naphthalen-1-yloxy)propyl]-3-(phenoxymethyl)-1,10,11,12,13,15-hexahydropyrazolo[4′3′:9,10][1,6]oxazacycloundecino[8,7,6-hi]indole-8-carboxylic Acid]: the IC50 is 0.656 µM against MCL-1, more than 3.3e-05 M with SUDHL5 [3] (setting [5]) and 3.09e-05 M in the data set on SUDHL10 [4] (setting [6]). In addition, the EC50 was more than 33 µM with SUDHL5 [1] (Homo sapiens, SU-DHL-5, 3 h) and 20.7 µM with SUDHL10 [2] (Homo sapiens, SU-DHL10, 3 h).

For the molecule `Cn1nc(COc2ccccc2)c2c1COCCCCn1c(C(=O)O)c(CCCOc3cccc4ccccc34)c3cccc-2c31` (single isomer, unassigned) [Example 1-80, 1-methyl-7-[3-(naphthalen-1-yloxy)propyl]-3-(phenoxymethyl)-1,10,11,12,13,15-hexahydropyrazolo[4′,3′:9,10][1,6]oxazacycloundecino[8,7,6-hi]indole-8-carboxylic Acid], the IC50 against MCL-1 is 0.0501 µM; in the data set on SUDHL5 [3] (read-out: Cytotox SUDHL5 [M] (median), SUDHL5 cells, cytotoxicity induction, CellTiter-Glo, 5 h incubation, median), more than 3.3e-05 M; in the data set with SUDHL10 [4] (setting [7]), more than 3.3e-05 M. In addition, the EC50 in the data set with SUDHL5 [1] and in the data set with SUDHL10 [2] was more than 33 µM each time.

Take `Cc1ccc2c(CCCOc3cccc4ccccc34)c(C(=O)O)n3c2c1-c1c(nn(C)c1C)COCCCC3` (single isomer, unassigned; enantiomer 1) [Example 076, 2,3,4-trimethyl-7-[3-(naphthalen-1-yloxy)propyl]-2,10,11,12,13,15-hexahydropyrazolo[4′,3′:9,10][1,6]oxazacycloundecino[8,7,6-hi]indole-8-carboxylic Acid (Enantiomer 1)]: the IC50 on MCL-1 worked out at 0.00145 µM; with A2780 it was 2.28e-05 M. Further, the EC50 stood at 1.32 µM with SUDHL5 [1] and 3.54 µM with SUDHL10 [2].

`Cc1nn(C)c2c1-c1cccc3c(CCCOc4cccc5ccccc45)c(C(=O)O)n(c13)CCCN(c1ccc(N3CCN(S(=O)(=O)N(C)C)CC3)cc1)C2` (single isomer, unassigned; enantiomer 2) [Example 1-107, 7-{4-[4-(Dimethylsulfamoyl)piperazin-1-yl]phenyl}-9,11-dimethyl-1-[3-(1-naphthyloxy)propyl]-4,5,6,7,8,9-hexahydropyrazolo[3′,4′:7,8][1,5]diazecino[9,10,1-hi]indole-2-carboxylic Acid (Enantiomer 2)]: the IC50 was 0.0897 µM against MCL-1; 2.89e-05 M and > 3.3e-05 M with SUDHL10 [4] (setting [7]). The EC50 with SUDHL5 [1] was 19.4 µM and > 33 µM.
